Experimental data published in US20240425523A1, “Compounds for the Degradation of EGFR Kinase” (Beigene Switzerland GMBH, priority 2023, published 2024).

Legend:
Format in all cases: cell-based
[1] = molecular target: T1, EGFR-L858R/C797S (H1975-clone #8 cells) (Homo sapiens, UniProt P00533, C797S/L858R); experiment: Cell degradation of EGFR, HTRF assay, H1975-clone#8 (L858R/C797S) cells; conditions: 16 h treatment; for DC50: EGFR degradation; for Dmax: maximum percentage of degradation
T1 construct: expressed in transfected cells; host or cells: H1975 (endogenous EGFR knocked out, clone #8)

[2] = molecular target: T2, p-EGFR L858R (BaF3-L858R cells) (Homo sapiens, UniProt P00533, L858R); experiment: Cell p-EGFR inhibition assay, HTRF, BaF3-L858R cells; conditions: 16 h treatment; for Imax (%): maximum percentage of pEGFR inhibition; for IC50: pEGFR inhibition
T2 construct: host or cells: BaF3
Outline: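 BaF3-L858R cells treated 16 h at 37 °C, 5% CO2 with compound from 10 uM top, 5-fold dilutions, 8 doses, in 0.1% DMSO medium. Lysates read overnight by HTRF p-EGFR antibodies; IC50 fitted to four-parameter curve against DMSO high control.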

[3] = molecular target: T3, EGFR L858R (BaF3-L858R cells) (Homo sapiens, UniProt P00533, L858R); experiment: Cell degradation of EGFR, HTRF assay, BaF3-L858R cells; conditions: 16 h treatment; for DC50: EGFR degradation; for Dmax: maximum percentage of degradation
T3 construct: host or cells: BaF3
Outline: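 BaF3-L858R cells treated 16 h at 37° C, 5% CO2 with compound (top 10 uM final, 5-fold, 8 doses, 0.1% DMSO). DC50 from four-parameter fit; Dmax is maximum percent degradation.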

[4] = molecular target: p-EGFR Del19/C797S (H1975-clone #23 cells) (Homo sapiens, UniProt P00533); experiment: Cell p-EGFR inhibition assay, HTRF, H1975-clone#23 (DEL19/C797S) cells; conditions: 16 h treatment; for Imax (%): maximum percentage of pEGFR inhibition; for IC50: pEGFR inhibition
Outline: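 Phospho-EGFR read by overnight HTRF on lysates, normalized to DMSO-treated high control; IC50, Hill slope and Imax fitted. Compounds were applied for 16 h (10 uM top, 5-fold steps, 8 doses) to an H1975 single clone carrying only exogenous Del19/C797S EGFR after sgRNA knockout of endogenous copies.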

| Compound | DC50 [1] | Dmax [1] | Imax (%) [2] | IC50 [2] | DC50 [3] | Dmax [3] | Imax (%) [4] | IC50 [4] |
| --- | --- | --- | --- | --- | --- | --- | --- | --- |
| Cc1cc2cc(n1)-c1cnn(C)c1OC[C@H]1CC[C@H](C1)CN1/C(=N/C2=O)Nc2ccc(N3CCN(C4CCN(c5ccc(OC6CCC(=O)NC6=O)nc5C)CC4)CC3)cc21 (stereo partly shown) [Example 137, 3-((5-(4-(4-((7^1R,7^3S,E)-1^1,2^6-dimethyl-3-oxo-5^2,5^3-dihydro-1^1H,5^1H-9-oxa-4-aza-5(2,1)-benzo[d]imidazola-2(2,4)-pyridina-1(4,5)-pyrazola-7(1,3)-cyclopentanacyclononaphane-5^6-yl)piperazin-1-yl)piperidin-1-yl)-6-methylpyridin-2-yl)oxy)piperidine-2,6-dione] | 3.35 nM | 78.2% | 96.47% | 14.6 nM | 2.37 nM | 83.3% | 98.8% | 0.528 nM |
| Cc1cc2cc(n1)-c1c(C)nn(C)c1OC[C@H]1CCC(C1)CN1/C(=N/C2=O)Nc2ccc(N3CCN(C4CCN(c5cc(F)c([C@H]6CCC(=O)NC6=O)c(F)c5)CC4)[C@@H](C)C3)cc21 [Example 135, (R)-3-(2,6-difluoro-4-(4-((S)-2-methyl-4-((7^1R,7^3S,E)-1^1,1^3,2^6-trimethyl-3-oxo-5^2,5^3-dihydro-1^1H,5^1H-9-oxa-4-aza-5(2,1)-benzo[d]imidazola-2(2,4)-pyridina-1(4,5)-pyrazola-7(1,3)-cyclopentanacyclononaphane-5^6-yl)piperazin-1-yl)piperidin-1-yl)phenyl)piperidine-2,6-dione] | 1.91 nM | 86.9% | 104.33% | 2.32 nM | 3.08 nM | 89.1% | 104.78% | 1.4 nM |
| Cc1cc2cc(n1)-c1cnn(C)c1OC[C@H]1CCC(C1)CN1/C(=N/C2=O)Nc2cc(C)c(N3CCN([C@@H]4CCN(c5ccc(C6CCC(=O)NC6=O)nc5C)C[C@@H]4F)CC3)cc21 (stereo partly drawn) [Example 102, 3-(5-((3S,4R)-3-fluoro-4-(4-((7^1R,7^3S,E)-1^1,2^6,5^5-trimethyl-3-oxo-5^2,5^3-dihydro-1^1H,5^1H-9-oxa-4-aza-5(2,1)-benzo[d]imidazola-2(2,4)-pyridina-1(4,5)-pyrazola-7(1,3)-cyclopentanacyclononaphane-5^6-yl)piperazin-1-yl)piperidin-1-yl)-6-methylpyridin-2-yl)piperidine-2,6-dione] | 0.76 nM | 91.5% | 95% | 1.5 nM | 0.59 nM | 85.8% | 100.5% | 0.6 nM |

Other lines, results leading:

| DC50 [1] | Dmax [1] | Imax (%) [2] | IC50 [2] | DC50 [3] | Dmax [3] | Imax (%) [4] | IC50 [4] | Compound |
| --- | --- | --- | --- | --- | --- | --- | --- | --- |
| 2.1 nM | 64.7% | 109.3% | 6 nM | 4.01 nM | 79.7% | 100.5% | 0.5 nM | Cc1cc2cc(n1)-c1cnn(C)c1OC[C@H]1CCC(C1)CN1/C(=N/C2=O)Nc2ccc(N3CCN([C@H]4CCN(c5cc(F)c([C@H]6CCC(=O)NC6=O)c(F)c5)C[C@H]4F)CC3)cc21 (single isomer, unassigned) [Example 84] |
| 0.55 nM | 65.7% | 94.2% | 15.6 nM | 3.14 nM | 70.8% | 99.1% | 1.1 nM | Cc1cc2cc(n1)-c1cnn(C)c1OC[C@H]1CCC(C1)CN1/C(=N/C2=O)Nc2ccc(N3CCC4(CC3)CN(C3CCN(c5cc(F)c([C@H]6CCC(=O)NC6=O)c(F)c5)CC3)C4)cc21 [Example 120, (R)-3-(4-(4-(7-((7^1R,7^3S,E)-1^1,2^6-dimethyl-3-oxo-5^2,5^3-dihydro-1^1H,5^1H-9-oxa-4-aza-5(2,1)-benzo[d]imidazola-2(2,4)-pyridina-1(4,5)-pyrazola-7(1,3)-cyclopentanacyclononaphane-5^6-yl)-2,7-diazaspiro[3.5]nonan-2-yl)piperidin-1-yl)-2,6-difluorophenyl)piperidine-2,6-dione] |
